According to patent publication US20230000813A1, “COMPOUND FOR THE TREATMENT OF BOVINE OR SWINE RESPIRATORY DISEASE” (Intervet Inc., priority 2016, published 2023):
≈ marks a conversion by molar mass, not a printed value.

Experiments:
Experiment in all cases: MIC, broth-microdilution (CLSI VET01-A4)
Assay type in all cases: cell-based
[1] = system: Mannheimia haemolytica MH 13065 (XB0446-6003.9, BRD field isolate)
Procedure, shortened: (§1)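 MIC read by eye as lowest compound concentration without visible growth (no turbidity), interpreted per CLSI VET01-S3. Doubling-dilution broth-microdilution trays, run according to CLSI VET01-A4.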

[2] = system: Mannheimia haemolytica MH 13093 (XB0472-6014.1, BRD field isolate)
Procedure, shortened: as §1

[3] = system: Pasteurella multocida PM 12080 (IV102277-0093, BRD field isolate); details: Pasteurella multocida PM 12080; for MIC: read-out: MIC PM 12080
Procedure, shortened: (§2)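 Compounds were tested in microdilution trays as twofold serial dilutions. The MIC was taken as the lowest concentration with no turbidity visible to the unaided eye, and results were interpreted per CLSI VET01-S3.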

[4] = system: Mannheimia haemolytica MH 12587 (1071, BRD field isolate, macrolide-resistance: erm+, E+); details: Mannheimia haemolytica MH 12587, macrolide-resistant
Procedure, shortened: as §2

[5] = system: Pasteurella multocida PM 10775 (080130003051, BRD field isolate); details: Pasteurella multocida PM 10775
Procedure, shortened: as §2

[6] = system: Mannheimia haemolytica MH 6357 (M7/2, reference strain, cattle infection strain); details: Mannheimia haemolytica MH 6357; read-out: MIC MH 6357
Procedure, shortened: as §2

[7] = system: Pasteurella multocida PM 6267 (P 2225 (L386), reference strain, mouse infection strain); details: Pasteurella multocida PM 6267; for MIC: read-out: MIC PM 6267
Procedure, shortened: as §2

[8] = system: Pasteurella multocida PM 6391 (ATCC 43137, reference strain); details: Pasteurella multocida PM 6391; for MIC: read-out: MIC PM 6391
Procedure, shortened: as §2

[9] = system: Mannheimia haemolytica MH 10720 (154, BRD field isolate); details: Mannheimia haemolytica MH 10720; for MIC: read-out: MIC MH 10720
Procedure, shortened: as §2

[10] = system: Mannheimia haemolytica MH 6374 (ATCC 33396, reference strain); details: Mannheimia haemolytica MH 6374; read-out: MIC MH 6374
Procedure, shortened: as §2

SMILES	MIC [1] [µM]	MIC [2] [µM]	MIC PM 12080 [3]	MIC MH 12587 [4] [µM]	MIC PM 10775 [5]	MIC [6] [µM]	MIC PM 6267 [7]	MIC PM 6391 [8]	MIC [9] [µM]	MIC [10] [µM]	MIC [3] [µM]	MIC [7] [µM]	MIC [8] [µM]	MIC MH 10720 [9]	MIC ([5]; read-out: MIC PM 10775) [µM]
C[C@@H](O)[C@H](NC(=O)c1ccc(C#Cc2ccc(CNCC#N)cc2)cc1)C(=O)NO [C. 360]	0.4 (≈ 0.163 µg/mL)	0.8 (≈ 0.325 µg/mL)	<=0.1 μM	0.8 (≈ 0.325 µg/mL)	<=0.1 μM	0.4 (≈ 0.163 µg/mL)	<=0.1 μM	<=0.1 μM	0.2 (≈ 0.0813 µg/mL)	0.4 (≈ 0.163 µg/mL)	–	–	–	–	–
Cc1ccc(CNCc2ccc(C#Cc3ccc(C(=O)NC(C(=O)NO)C(C)C)cc3)cc2)cc1 (stereo not drawn) [Compound 292]	0.8 (≈ 0.376 µg/mL)	0.8 (≈ 0.376 µg/mL)	–	1.6 (≈ 0.751 µg/mL)	<=0.1 μM	0.4 (≈ 0.188 µg/mL)	–	–	0.4 (≈ 0.188 µg/mL)	0.8 (≈ 0.376 µg/mL)	0.4 (≈ 0.188 µg/mL)	0.2 (≈ 0.0939 µg/mL)	0.4 (≈ 0.188 µg/mL)	–	–
CSCCNCc1ccc(C#Cc2ccc(C(=O)NC(C(=O)NO)C(C)(C)N)cc2)s1 (racemic) [Compound 635]	0.8 (≈ 0.369 µg/mL)	0.8 (≈ 0.369 µg/mL)	<=0.1 μM	1.6 (≈ 0.737 µg/mL)	<=0.1 μM	1.6 (≈ 0.737 µg/mL)	<=0.1 μM	–	–	0.4 (≈ 0.184 µg/mL)	–	–	0.4 (≈ 0.184 µg/mL)	<=0.1 μM	–
COc1ccc(CNCc2ccc(C#Cc3ccc(C(=O)NC(C(=O)NO)C(C)(C)SC)cc3)cc2)cc1 (stereo not drawn) [Compound 586]	1.6 (≈ 0.851 µg/mL)	1.6 (≈ 0.851 µg/mL)	–	1.6 (≈ 0.851 µg/mL)	–	1.6 (≈ 0.851 µg/mL)	–	–	0.4 (≈ 0.213 µg/mL)	1.6 (≈ 0.851 µg/mL)	0.4 (≈ 0.213 µg/mL)	0.2 (≈ 0.106 µg/mL)	0.8 (≈ 0.425 µg/mL)	–	0.2 (≈ 0.106 µg/mL)
CC(C)(N)C(NC(=O)c1ccc(C#Cc2ccc(CNCc3cccnc3)cc2)cc1)C(=O)NO (racemic) [C. 364]	0.8 (≈ 0.377 µg/mL)	1.6 (≈ 0.754 µg/mL)	<=0.1 μM	1.6 (≈ 0.754 µg/mL)	<=0.1 μM	1.6 (≈ 0.754 µg/mL)	<=0.1 μM	–	0.8 (≈ 0.377 µg/mL)	1.6 (≈ 0.754 µg/mL)	–	–	0.2 (≈ 0.0943 µg/mL)	–	–
CC(C)(C(NC(=O)c1ccc(C#Cc2ccc(CNCc3ccco3)cc2)cc1)C(=O)NO)S(C)(=O)=O (stereo not drawn) [C. 616]	0.2 (≈ 0.105 µg/mL)	0.4 (≈ 0.209 µg/mL)	<=0.1 μM	0.8 (≈ 0.419 µg/mL)	<=0.1 μM	0.8 (≈ 0.419 µg/mL)	<=0.1 μM	<=0.1 μM	–	0.2 (≈ 0.105 µg/mL)	–	–	–	<=0.1 μM	–
C[C@@H](O)[C@H](NC(=O)c1ccc(C#Cc2ccc(CNCc3nccs3)cc2)cc1)C(=O)NO [Compound 359]	0.2 (≈ 0.0929 µg/mL)	0.4 (≈ 0.186 µg/mL)	<=0.1 μM	0.4 (≈ 0.186 µg/mL)	<=0.1 μM	0.2 (≈ 0.0929 µg/mL)	<=0.1 μM	<=0.1 μM	–	0.2 (≈ 0.0929 µg/mL)	–	–	–	<=0.1 μM	–
CC(C)([C@H](NC(=O)c1ccc(C#Cc2ccc(CN3CCOCC3)cc2)cc1)C(=O)NO)S(C)(=O)=O [Compound 604]	0.8 (≈ 0.411 µg/mL)	1.6 (≈ 0.822 µg/mL)	<=0.1 μM	1.6 (≈ 0.822 µg/mL)	<=0.1 μM	1.6 (≈ 0.822 µg/mL)	<=0.1 μM	<=0.1 μM	0.2 (≈ 0.103 µg/mL)	1.6 (≈ 0.822 µg/mL)	–	–	–	–	–
CC(C)C(NC(=O)c1ccc(C#Cc2ccc(CNCc3ccccn3)cc2)cc1)C(=O)NO (stereo not drawn) [Compound 289]	0.8 (≈ 0.365 µg/mL)	0.8 (≈ 0.365 µg/mL)	–	1.6 (≈ 0.73 µg/mL)	<=0.1 μM	0.4 (≈ 0.183 µg/mL)	<=0.1 μM	–	0.2 (≈ 0.0913 µg/mL)	0.8 (≈ 0.365 µg/mL)	0.4 (≈ 0.183 µg/mL)	–	0.4 (≈ 0.183 µg/mL)	–	–
